Reference: patent US4118506A, “Pharmaceutical compositions containing 1,3-dithiol-2-ylidene malonate derivatives” (Nihon Nohyaku Co., Ltd., priority 1976, dated 1978)

Experiments:
[1] = acute oral toxicity to male mice (LD50); details: mouse, in vivo
Excerpt: Further, these compounds have no detrimental effects on test animals administered therewith, so far as the doses thereof are within an ordinary administration range.

[2] = tested on: acute liver damage induced by dimethylnitrosamine; assay: protective effect on acute liver damage associated with centrilobular necrosis, dimethylnitrosamine model; assay type: in vivo, mouse (dd); details: dimethylnitrosamine 0.05 ml/kg i.p.; 100 mg/kg oral 6 h before; 15 h after
Protocol: Bromobenzene (hereinafter abbreviated as BB), Dimethylnitrosamine (hereinafter abbreviated as DMN) and chloroform (hereinafter abbreviated as CF) resemble carbon tetrachloride in inducing liver damage associated with centrilobular necrosis.
Test compound or anethol trithion was orally administered to animal at the dose of 100 mg/kg. Twenty four hours after it (in the case of dimethylnitrosamine, exceptionally fifteen hours after it) the animals were sacrificed and blood samples were collected. Indices of hepatotoxicity adoptable in each chemical were measured, from which the efficacy of the compound was evaluated.
DMN male mouse 0.05 intraper-

[3] = tested on: chronic liver damage induced by thioacetamide; assay: therapeutic effect on chronic liver damage, thioacetamide model (BSP test); assay type: in vivo, rat (Sprague Dawley); details: Group B, diet + 0.2% compound
Protocol: In the tests of this Example, TAA was repeatedly administered to animals to prepare test animals suffering from somewhat chronic liver damages, and then the present compounds were administered thereto to know whether or not the compounds were effective against chronic hepatitis.
The degree of the liver damage and the therapeutic effects of the compounds were evaluated according to BSP test. The BSP test is a method in which BSP (sulfobromophthalein sodium), a dye known to be quickly metabolized in and excreted from the liver, is intravenously injected into animals and, after a definite period of time, the blood is taken out to measure the amount of BSP remaining in the plasma. In case the animals are suffering from the liver damage, the dye will remain, according to the degree of the damage, at the stage where a major portion of BSP is metabolized and excreted in the case of normal animals.
Five groups of rats (Sprague Dawley strain) were treated as follows:
Group A: The rats were orally administered with 100 mg/kg of thioacetamide,at 3 days intervals for 36 days (12 times of the administration), then were submitted for 10 days to a normal diet.
Group B: The rats were orally administered with 100 mg/kg of thioacetamide at 3 days intervals for 36 days (12 times of the administration), then were submitted for 10 days to the normal diet + 0.2% of compound 4.
Group C: The rats were submitted to the normal diet as the control.
Five rats were sacrificed from each group at appropriate intervals for BSP (sulfobromophthalein sodium) test, the results of which were shown as amounts (mg) of BSP remaining in ldl of plasma.

[4] = tested on: fatty liver induced by carbon tetrachloride; assay: therapeutic effect on fatty liver, carbon tetrachloride model; assay type: in vivo, rat (SD strain)
Protocol: Carbon tetrachloride also induces fatty liver, but the picture of disease differs from the case of ethionine-induced fatty liver. Carbon tetrachloride is generally considered to damage microsome and thereby to inhibit protein synthesis and induce fatty liver.
Carbon tetrachloride was subcutaneously administered to 36 week-old male rats (SD strain) for 4 days at the dose of 1 ml/kg. The treated animals were left for 3 days after the last administration to maximize the manifestation of fatty liver.
Administration of Compound 4 was commenced on the fourth day after the administration of carbon tetrachloride was completed. It was orally given everyday for 10 days at the dose of 50 or 250 mg/kg. On the 11th day, the animals were sacrificed by exsanguination. The therapeutic effect was evaluated by determining the content of lipid in the liver (triglyceride and total lipid) and examining the histopathological changes. Triglyceride and total lipid were determined colorimetrically by chromotropic acid method and Bragdon's oxidation method, respectively.
Indices for the histopathological change is as follows: […]

[5] = tested on: cirrhosis induced by carbon tetrachloride; assay: therapeutic effect on cirrhosis, carbon tetrachloride; assay type: in vivo, rat (SD-strain); details: therapeutic group, diet 2000 ppm
Excerpt: Almost all the liver diseases induced by various causes are considered to advance, finally, to cirrhosis. Cirrhosis is a final stage of liver damage, which is difficult to classify from the causal viewpoint. Usually, experimental cirrhosis is induced by long-term repeated administration of carbon tetrachloride. The therapeutic effect of the compounds of this invention on cirrhosis, which had been caused by carbon tetrachloride administration, was examined.
A 10% solution of carbon tetrachloride in olive oil was administered to the male rat (4 week-old SD-strain) intraperitoneally at the dose of 0.5 ml carbon tetrachloride/kg twice a week over a period of 10 weeks, to induce cirrhosis. Four days after the final administration of carbon tetrachloride, the formation of pseudo-lobulus was confirmed. Then the diseased animals were divided into two groups. Therapeutic group was submitted a diet containing 2000 ppm of Compound 4, while the positive control group was submitted a normal diet. Control group, to which olive oil alone had been administered, was submitted a normal diet.
At 1, 2, 4 and 8 weeks after beginning of Compound 4 feeding, 5 animals from each group were sacrificed, and the therapeutic effect on cirrhosis was evaluated by examining plasma transaminase activity (p-GPT and p-GOT, Reitman-Frankel method) and observing histopathological changes.
Degree of cirrhosis in the histopathological examination was graded as follows: […]

[6] = tested on: glucose metabolic function of liver; assay: effect on glucose metabolism (blood sugar); assay type: in vivo, mouse; details: for Blood Sugar: 250 mg/kg oral 6 h before glucose 4.0 g/kg
Protocol: Methods: The test compounds dissolved in olive oil and administered orally at the dose of 250 mg/kg to the mice. After 6 hours, 4.0 g/kg of glucose was orally administered. The same amount of glucose was given to the control animals. 0.02 ml of blood was taken from caudal vein of the mice at 30, 60, 90 and 120 min. after glucose administration. Blood sugar was measured by the procedure of Somogyi-Nelson. Number of animals used was 5 to 6 mice for each treatment.

[7] = 50 mg/kg oral everyday for 10 days

Compound: CC(C)OC(=O)C(C(=O)OC(C)C)=C1SC=CS1 [Compound 4, diisopropyl 1,3-dithiol-2-ylidene malonate]
- LD50 [1]: 3120 mg/kg
- BSP [2]: 10 ± 2.0 mg/dL
- p-GPT [2]: 204 ± 44 Karmen unit
- BSP remaining in plasma ([3]; 2 days after compound administration): 7.2 ± 2.5 mg/dL
- BSP remaining in plasma ([3]; 5 days after compound administration): 2.8 ± 0.7 mg/dL
- BSP remaining in plasma ([3]; 10 days after compound administration): 0.5 ± 0.1 mg/dL
- Total lipid [4, 7]: 78.6 ± 16.8 mg/g-liver
- Triglyceride [4, 7]: 37.6 ± 8.5 mg/g-liver
- Total lipid ([4]; 250 mg/kg, 10 days): 64.1 ± 10.2 mg/g-liver
- Triglyceride ([4]; 250 mg/kg, 10 days): 23.6 ± 7.0 mg/g-liver
- p-GOT activity ([5]; 1 week): 562 ± 119 Karmen unit
- p-GPT activity ([5]; 1 week): 169 ± 30 Karmen unit
- p-GOT activity ([5]; 2 weeks): 182 ± 43 Karmen unit
- p-GPT activity ([5]; 2 weeks): 43 ± 11 Karmen unit
- p-GOT activity ([5]; 4 weeks): 142 ± 48 Karmen unit
- p-GPT activity ([5]; 4 weeks): 45 ± 23 Karmen unit
- p-GOT activity ([5]; 8 weeks): 120 ± 32 Karmen unit
- p-GPT activity ([5]; 8 weeks): 33 ± 20 Karmen unit
- Blood Sugar, percent of 0 min value ([6]; 0 min): 100%
- Blood Sugar ([6]; 0 min): 123 ± 10.9 mg/dL
- Blood Sugar ([6]; 30 min): 282 ± 25.2 mg/dL
- Blood Sugar ([6]; 60 min): 236 ± 19.7 mg/dL
- Blood Sugar ([6]; 90 min): 159 ± 18.3 mg/dL
- Blood Sugar ([6]; 120 min): 138 ± 14.4 mg/dL
- Blood Sugar, percent of 0 min value ([6]; 30 min): 229%
- Blood Sugar, percent of 0 min value ([6]; 60 min): 192%
- Blood Sugar, percent of 0 min value ([6]; 90 min): 129%
- Blood Sugar, percent of 0 min value ([6]; 120 min): 112%
